Experimental data: patent US8859584B2, “TRPV1 antagonists” (AbbVie Inc., priority 2011, dated 2014)
pIC50: −log10 of the molar value.

Assays:
human TRPV1 [1] = target: T1, human TRPV1 (Homo sapiens, UniProt Q8NER1); assay: Acid Activation Assay (pH 5.0, FLIPR intracellular Ca2+, recombinant HEK293 cells); format: cell-based; settings: percentage of maximal pH 5.0-induced response remaining; HEK293 hTRPV1; max concentration 37.5 μM
T1 construct: expressed in transfected cells
How it was run: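 HEK293 cells stably expressing recombinant hTRPV1 were loaded with calcium dye for 90-120 min at 25° C and pre-treated with compound for 3 min before a pH 5.0 (DPBS/MES) challenge. Peak FLIPR fluorescence over baseline is given as percentage of the maximal pH 5.0-induced response.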

human TRPV1 [2] = target: T1, human TRPV1; assay: Capsaicin Activation Assay (FLIPR intracellular Ca2+, recombinant HEK293 cells); format: cell-based; settings: recombinant HEK293 cells expressing hTRPV1; 50 nM capsaicin; read-out: human TRPV1 capsaicin IC50

T1 sequence (Q8NER1 whole entry): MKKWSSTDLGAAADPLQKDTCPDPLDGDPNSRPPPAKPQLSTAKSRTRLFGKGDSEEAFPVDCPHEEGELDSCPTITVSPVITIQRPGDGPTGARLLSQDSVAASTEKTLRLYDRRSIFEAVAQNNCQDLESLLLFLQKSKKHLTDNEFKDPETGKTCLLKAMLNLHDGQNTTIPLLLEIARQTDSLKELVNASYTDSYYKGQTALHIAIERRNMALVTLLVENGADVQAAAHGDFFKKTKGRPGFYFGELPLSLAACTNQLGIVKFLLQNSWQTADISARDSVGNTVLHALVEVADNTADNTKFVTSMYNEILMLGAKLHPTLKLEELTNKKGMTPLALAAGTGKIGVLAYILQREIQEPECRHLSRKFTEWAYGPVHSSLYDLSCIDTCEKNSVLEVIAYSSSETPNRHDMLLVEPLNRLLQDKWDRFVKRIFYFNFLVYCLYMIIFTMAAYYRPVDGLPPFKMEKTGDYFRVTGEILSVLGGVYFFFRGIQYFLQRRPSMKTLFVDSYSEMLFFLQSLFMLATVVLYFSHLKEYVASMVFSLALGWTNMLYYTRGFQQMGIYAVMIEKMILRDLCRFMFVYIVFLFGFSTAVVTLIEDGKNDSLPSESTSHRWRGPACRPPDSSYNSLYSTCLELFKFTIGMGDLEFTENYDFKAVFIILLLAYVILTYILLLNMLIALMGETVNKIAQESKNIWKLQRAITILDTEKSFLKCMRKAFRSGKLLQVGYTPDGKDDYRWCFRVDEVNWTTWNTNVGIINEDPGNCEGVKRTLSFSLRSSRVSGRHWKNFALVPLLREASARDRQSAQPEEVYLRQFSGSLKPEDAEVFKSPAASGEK

SMILES | human TRPV1 H+ (max % remain) (human TRPV1 [1]) | pIC50 (human TRPV1 [2])
CCC1(CC)C[C@@H](NC(=O)Nc2cccc3c2C[C@H](O)C3)c2ccccc2O1 [Example 49, 1-[(4R)-2,2-diethyl-3,4-dihydro-2H-chromen-4-yl]-3-[(2R)-2-hydroxy-2,3-dihydro-1H-inden-4-yl]urea] | 75% | 7.66
O=C(Nc1cccc2c1C[C@@H](O)C2)N[C@@H]1CC(CF)(CF)Oc2cc(OC(F)(F)F)ccc21 [Example 76, 1-[(4R)-2,2-bis(fluoromethyl)-7-(trifluoromethoxy)-3,4-dihydro-2H-chromen-4-yl]-3-[(2S)-2-hydroxy-2,3-dihydro-1H-inden-4-yl]urea] | 1% | 7.49
COCC1(COC)C[C@@H](NC(=O)Nc2cccc3c2C[C@H](O)C3)c2cc(F)ccc2O1 [Example 68, 1-[(4R)-6-fluoro-2,2-bis(methoxymethyl)-3,4-dihydro-2H-chromen-4-yl]-3-[(2R)-2-hydroxy-2,3-dihydro-1H-inden-4-yl]urea] | 79% | 6.01
C[C@]1(CF)C[C@@H](NC(=O)Nc2cccc3c2C[C@H](O)C3)c2ccc(Cl)cc2O1 [Example 15, 1-[(2R,4R)-7-chloro-2-(fluoromethyl)-2-methyl-3,4-dihydro-2H-chromen-4-yl]-3-[(2R)-2-hydroxy-2,3-dihydro-1H-inden-4-yl]urea] | 63% | 7.22
CC(C)(C)c1cccc2c1OCC[C@H]2NC(=O)Nc1cccc2c1C[C@H](O)C2 [Example 51, 1-[(4R)-8-tert-butyl-3,4-dihydro-2H-chromen-4-yl]-3-[(2R)-2-hydroxy-2,3-dihydro-1H-inden-4-yl]urea] | 70% | 7.74
O=C(Nc1cccc2c1C[C@H](O)C2)N[C@@H]1CC(CF)(CF)Oc2cc(Br)ccc21 [Example 45, 1-[(4R)-7-bromo-2,2-bis(fluoromethyl)-3,4-dihydro-2H-chromen-4-yl]-3-[(2R)-2-hydroxy-2,3-dihydro-1H-inden-4-yl]urea] | 58% | 7.37
O=C(Nc1cccc2c1C[C@H](O)C2)N[C@@H]1CCOc2c(F)cc(F)cc21 [Example 64, 1-[(4R)-6,8-difluoro-3,4-dihydro-2H-chromen-4-yl]-3-[(2R)-2-hydroxy-2,3-dihydro-1H-inden-4-yl]urea] | 90% | 5.32
O=C(Nc1cccc2c1C[C@H](O)C2)N[C@@H]1CC2(CCC2)Oc2cc(C(F)(F)F)ccc21 [Example 42, 1-[(2R)-2-hydroxy-2,3-dihydro-1H-inden-4-yl]-3-[(4R)-7-(trifluoromethyl)-3,4-dihydrospiro[chromene-2,1′-cyclobutan]-4-yl]urea] | 20% | 7.27
CCC1(CC)C[C@@H](NC(=O)Nc2cccc3c2C[C@H](O)C3)c2ccc(Cl)c(Cl)c2O1 [Example 55, 1-[(4R)-7,8-dichloro-2,2-diethyl-3,4-dihydro-2H-chromen-4-yl]-3-[(2R)-2-hydroxy-2,3-dihydro-1H-inden-4-yl]urea] | 72% | 6.62
O=C(Nc1cccc2c1C[C@@H](O)C2)N[C@@H]1CCOc2c(OC(F)(F)F)cccc21 [Example 73, 1-[(2S)-2-hydroxy-2,3-dihydro-1H-inden-4-yl]-3-[(4R)-8-(trifluoromethoxy)-3,4-dihydro-2H-chromen-4-yl]urea] | 18% | 7.60
C[C@@]1(CF)C[C@@H](NC(=O)Nc2cccc3c2C[C@H](O)C3)c2ccc(Cl)cc2O1 [Example 16, 1-[(2S,4R)-7-chloro-2-(fluoromethyl)-2-methyl-3,4-dihydro-2H-chromen-4-yl]-3-[(2R)-2-hydroxy-2,3-dihydro-1H-inden-4-yl]urea] | 57% | 7.43

More lines, now with the values ahead:

human TRPV1 H+ (max % remain) (human TRPV1 [1]) | pIC50 (human TRPV1 [2]) | SMILES
14% | 6.15 | COc1ccc2c(c1)OC(c1ccc(Cl)cc1)CC2NC(=O)Nc1cccc2c1CC(O)C2 (centres unmarked) [Example 122, 1-[2-(4-chlorophenyl)-7-methoxy-3,4-dihydro-2H-chromen-4-yl]-3-(2-hydroxy-2,3-dihydro-1H-inden-4-yl)urea]
43% | 6.14 | COc1ccc2c(c1)OCC(Cc1ccc(Cl)c(Cl)c1)C2NC(=O)Nc1cccc2c1CC(O)C2 (centres unmarked) [Example 114, 1-[3-(3,4-dichlorobenzyl)-7-methoxy-3,4-dihydro-2H-chromen-4-yl]-3-(2-hydroxy-2,3-dihydro-1H-inden-4-yl)urea]
4% | 6.96 | O=C(Nc1cccc2c1C[C@@H](O)C2)N[C@@H]1CC2(CCC2)Oc2ccc(F)cc21 [Example 80, 1-[(4R)-6-fluoro-3,4-dihydrospiro[chromene-2,1′-cyclobutan]-4-yl]-3-[(2S)-2-hydroxy-2,3-dihydro-1H-inden-4-yl]urea]
2% | 6.40 | O=C(Nc1ccc(F)c2c1C[C@H](O)C2)N[C@@H]1CC(CF)(CF)Oc2c1ccc(Cl)c2F [Example 144, 1-[(4R)-7-chloro-8-fluoro-2,2-bis(fluoromethyl)-3,4-dihydro-2H-chromen-4-yl]-3-[(2S)-7-fluoro-2-hydroxy-2,3-dihydro-1H-inden-4-yl]urea]
51% | 6.70 | CC1(C)C[C@@H](NC(=O)Nc2ccc(F)c3c2C[C@@H](O)C3)c2ccc(Cl)cc2O1 [Example 167, 1-[(4R)-7-chloro-2,2-dimethyl-3,4-dihydro-2H-chromen-4-yl]-3-[(2R)-7-fluoro-2-hydroxy-2,3-dihydro-1H-inden-4-yl]urea]
45% | 6.89 | O=C(Nc1cccc2c1CC(O)C2)NC1CC(c2ccc(Cl)cc2)Oc2ccccc21 (centres unmarked) [Example 117, 1-[2-(4-chlorophenyl)-3,4-dihydro-2H-chromen-4-yl]-3-(2-hydroxy-2,3-dihydro-1H-inden-4-yl)urea]
74% | < 4.42 | COc1ccc(C2CC(NC(=O)Nc3cccc4c3CC(O)C4)c3ccccc3O2)cc1OC (centres unmarked) [Example 113, 1-[2-(3,4-dimethoxyphenyl)-3,4-dihydro-2H-chromen-4-yl]-3-(2-hydroxy-2,3-dihydro-1H-inden-4-yl)urea]
3% | 7.38 | CC1(C)C[C@@H](NC(=O)Nc2ccc(F)c3c2C[C@H](O)C3)c2cccc(C(F)(F)F)c2O1 [Example 135, 1-[(4R)-2,2-dimethyl-8-(trifluoromethyl)-3,4-dihydro-2H-chromen-4-yl]-3-[(2S)-7-fluoro-2-hydroxy-2,3-dihydro-1H-inden-4-yl]urea]
88% | 5.85 | C[C@@]1(C(F)F)C[C@@H](NC(=O)Nc2cccc3c2C[C@H](O)C3)c2ccccc2O1 [Example 126, 1-[(2S,4R)-2-(difluoromethyl)-2-methyl-3,4-dihydro-2H-chromen-4-yl]-3-[(2R)-2-hydroxy-2,3-dihydro-1H-inden-4-yl]urea]
2% | 7.21 | O=C(Nc1c(F)ccc2c1C[C@H](O)C2)N[C@@H]1CC(CF)(CF)Oc2cc(C(F)(F)F)ccc21 [Example 96, 1-[(4R)-2,2-bis(fluoromethyl)-7-(trifluoromethyl)-3,4-dihydro-2H-chromen-4-yl]-3-[(2R)-5-fluoro-2-hydroxy-2,3-dihydro-1H-inden-4-yl]urea]
7% | 5.49 | CC1(C)C[C@@H](NC(=O)Nc2ccc(F)c3c2C[C@H](O)C3)c2ccccc2O1 [Example 145, 1-[(4R)-2,2-dimethyl-3,4-dihydro-2H-chromen-4-yl]-3-[(2S)-7-fluoro-2-hydroxy-2,3-dihydro-1H-inden-4-yl]urea]
92% | 6.00 | C[C@]1(CF)C[C@@H](NC(=O)Nc2ccc3c(c2)C(O)C3)c2ccc(Cl)cc2O1 (stereo partly drawn) [Example 131, 1-[(2R,4R)-7-chloro-2-(fluoromethyl)-2-methyl-3,4-dihydro-2H-chromen-4-yl]-3-(8-hydroxybicyclo[4.2.0]octa-1,3,5-trien-3-yl)urea]
59% | 6.62 | O=C(Nc1cccc2c1CC(O)C2)NC1CC(c2cccc(Cl)c2)Oc2ccccc21 (centres unmarked) [Example 110, 1-[2-(3-chlorophenyl)-3,4-dihydro-2H-chromen-4-yl]-3-(2-hydroxy-2,3-dihydro-1H-inden-4-yl)urea]
61% | 5.82 | CC1(C)C[C@@H](NC(=O)Nc2ccc(F)c3c2C[C@@H](O)C3)c2ccccc2O1 [Example 164, 1-[(4R)-2,2-dimethyl-3,4-dihydro-2H-chromen-4-yl]-3-[(2R)-7-fluoro-2-hydroxy-2,3-dihydro-1H-inden-4-yl]urea]
57% | 5.47 | O=C(Nc1ccc(F)c2c1C[C@@H](O)C2)N[C@@H]1CC(CF)(CF)Oc2ccccc21 [Example 169, 1-[(4R)-2,2-bis(fluoromethyl)-3,4-dihydro-2H-chromen-4-yl]-3-[(2R)-7-fluoro-2-hydroxy-2,3-dihydro-1H-inden-4-yl]urea]
99% | 4.55 | CC1(C)C[C@H](NC(=O)Nc2cccc3c2C[C@@H](O)C3)c2cc(F)ccc2O1 [Example 103, 1-[(4S)-6-fluoro-2,2-dimethyl-3,4-dihydro-2H-chromen-4-yl]-3-[(2S)-2-hydroxy-2,3-dihydro-1H-inden-4-yl]urea]
57% | 6.17 | O=C(Nc1cccc2c1CC(O)C2)NC1CC(c2ccc(C(F)(F)F)cc2)Oc2ccccc21 (centres unmarked) [Example 121, 1-(2-hydroxy-2,3-dihydro-1H-inden-4-yl)-3-{2-[4-(trifluoromethyl)phenyl]-3,4-dihydro-2H-chromen-4-yl}urea]
